ChEMBL document CHEMBL1135887, “Substituted pentacyclic carbazolones as novel muscarinic allosteric agents: synthesis and structure-affinity and cooperativity relationships” (J Med Chem, 2002)

What was measured:
[1] = molecular target: T1, Muscarinic acetylcholine receptor M4 (Homo sapiens) (UniProt P08173); test: Logarithm of affinity (log 1/M) at the muscarinic acetylcholine receptor M4 by using semiquantitative equilibrium and off-rate assay
T1 sequence (whole entry): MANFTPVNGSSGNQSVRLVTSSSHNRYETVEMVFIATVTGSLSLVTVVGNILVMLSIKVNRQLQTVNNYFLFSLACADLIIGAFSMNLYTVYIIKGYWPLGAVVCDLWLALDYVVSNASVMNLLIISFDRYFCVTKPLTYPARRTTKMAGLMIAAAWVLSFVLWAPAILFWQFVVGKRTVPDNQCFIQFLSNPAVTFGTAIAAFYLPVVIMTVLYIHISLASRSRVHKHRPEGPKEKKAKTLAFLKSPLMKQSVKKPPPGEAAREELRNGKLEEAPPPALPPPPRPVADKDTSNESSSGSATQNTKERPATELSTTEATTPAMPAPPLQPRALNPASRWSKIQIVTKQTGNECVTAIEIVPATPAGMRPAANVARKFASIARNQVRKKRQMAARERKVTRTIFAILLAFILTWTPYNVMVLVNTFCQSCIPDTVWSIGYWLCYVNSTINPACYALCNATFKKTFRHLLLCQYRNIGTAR

[2] = molecular target: T2, Muscarinic acetylcholine receptor M1 (Homo sapiens) (UniProt P11229); test: Logarithm of affinity (log 1/M) at the free muscarinic acetylcholine receptor M1 by using semiquantitative equilibrium and off-rate assay
T2 sequence (whole entry): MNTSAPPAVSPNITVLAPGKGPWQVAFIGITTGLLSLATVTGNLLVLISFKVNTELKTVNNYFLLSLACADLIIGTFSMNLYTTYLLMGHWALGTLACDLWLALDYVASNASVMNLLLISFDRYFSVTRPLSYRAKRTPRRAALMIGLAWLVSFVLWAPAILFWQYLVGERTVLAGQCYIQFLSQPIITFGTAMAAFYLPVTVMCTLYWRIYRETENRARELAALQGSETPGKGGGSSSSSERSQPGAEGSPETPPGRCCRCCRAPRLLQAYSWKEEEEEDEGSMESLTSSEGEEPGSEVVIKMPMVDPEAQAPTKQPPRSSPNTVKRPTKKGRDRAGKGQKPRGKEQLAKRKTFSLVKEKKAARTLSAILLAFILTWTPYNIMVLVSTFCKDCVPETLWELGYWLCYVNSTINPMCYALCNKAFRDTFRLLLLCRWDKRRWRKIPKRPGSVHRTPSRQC

[3] = molecular target: T1, Muscarinic acetylcholine receptor M4 (Homo sapiens); test: Subtype selectivity and the cooperativity with N-methyl Scopolamine (NMS) at Muscarinic acetylcholine receptor M4; Activity range is 0.81-1.19
[4] = molecular target: T1, Muscarinic acetylcholine receptor M4 (Homo sapiens); test: Logarithm of affinity (log 1/M) at the (N-methyl Scopolamine) NMS-liganded muscarinic acetylcholine receptor M4 by using semiquantitative equilibrium and off-rate assay
[5] = molecular target: T2, Muscarinic acetylcholine receptor M1 (Homo sapiens); test: Subtype selectivity and the cooperativity with N-methyl Scopolamine (NMS) at Muscarinic acetylcholine receptor M1; Activity range is 0.2-0.8
[6] = molecular target: T3, Muscarinic acetylcholine receptor M2 (Homo sapiens) (UniProt P08172); test: Logarithm of affinity (log 1/M) at the (N-methyl Scopolamine) NMS-liganded muscarinic acetylcholine receptor M2 by using semiquantitative equilibrium and off-rate assay
T3 sequence (whole entry): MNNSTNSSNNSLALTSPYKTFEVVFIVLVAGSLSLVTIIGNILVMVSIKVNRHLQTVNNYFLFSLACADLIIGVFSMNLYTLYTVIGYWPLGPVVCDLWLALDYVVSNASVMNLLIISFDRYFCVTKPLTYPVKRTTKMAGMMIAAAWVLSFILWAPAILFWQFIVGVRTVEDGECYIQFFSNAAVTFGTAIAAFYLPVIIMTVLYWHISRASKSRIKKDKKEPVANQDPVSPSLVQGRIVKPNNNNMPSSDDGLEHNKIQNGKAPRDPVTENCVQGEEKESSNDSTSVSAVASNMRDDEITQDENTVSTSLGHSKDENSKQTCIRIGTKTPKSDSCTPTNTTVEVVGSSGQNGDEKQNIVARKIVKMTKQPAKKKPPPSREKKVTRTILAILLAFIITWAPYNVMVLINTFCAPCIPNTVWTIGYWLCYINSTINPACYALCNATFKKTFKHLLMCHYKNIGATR

[7] = molecular target: Muscarinic acetylcholine receptor M3 (Homo sapiens) (UniProt P20309); test: Logarithm of affinity (log 1/M) at the muscarinic acetylcholine receptor M3 by using semiquantitative equilibrium and off-rate assay
Sequence of Muscarinic acetylcholine receptor M3 (Homo sapiens) (P20309 whole entry, looked up): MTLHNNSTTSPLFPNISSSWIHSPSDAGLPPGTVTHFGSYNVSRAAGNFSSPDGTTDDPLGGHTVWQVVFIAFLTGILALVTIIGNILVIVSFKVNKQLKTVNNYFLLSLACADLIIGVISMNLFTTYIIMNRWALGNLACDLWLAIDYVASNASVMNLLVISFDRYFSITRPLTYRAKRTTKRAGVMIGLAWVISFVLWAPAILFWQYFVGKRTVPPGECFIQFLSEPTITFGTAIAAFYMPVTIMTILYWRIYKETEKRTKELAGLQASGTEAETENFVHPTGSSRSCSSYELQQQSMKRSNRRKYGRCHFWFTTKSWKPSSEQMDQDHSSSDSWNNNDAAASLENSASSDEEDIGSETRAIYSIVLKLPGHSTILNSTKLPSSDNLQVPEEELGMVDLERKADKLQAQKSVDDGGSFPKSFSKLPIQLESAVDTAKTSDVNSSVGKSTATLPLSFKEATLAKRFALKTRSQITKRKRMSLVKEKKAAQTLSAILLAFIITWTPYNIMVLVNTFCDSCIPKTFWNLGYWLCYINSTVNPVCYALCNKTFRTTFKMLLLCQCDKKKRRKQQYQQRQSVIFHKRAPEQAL

[8] = molecular target: Muscarinic acetylcholine receptor M3 (Homo sapiens) (UniProt P20309); test: Subtype selectivity and the cooperativity with N-methyl Scopolamine (NMS) at muscarinic acetylcholine receptor M3; Activity range is 0.2-0.8
[9] = molecular target: T2, Muscarinic acetylcholine receptor M1 (Homo sapiens); test: Logarithm of affinity (log 1/M) at the (N-methyl Scopolamine) NMS-liganded muscarinic acetylcholine receptor M1 by using semiquantitative equilibrium and off-rate assay
[10] = molecular target: T3, Muscarinic acetylcholine receptor M2 (Homo sapiens); test: Logarithm of affinity (log 1/M) at the muscarinic acetylcholine receptor M2 by using semiquantitative equilibrium and off-rate assay
[11] = molecular target: T3, Muscarinic acetylcholine receptor M2 (Homo sapiens); test: Subtype selectivity and the cooperativity with N-methyl Scopolamine (NMS) at Muscarinic acetylcholine receptor M2; Activity range is 0.81-1.19
[12] = molecular target: Muscarinic acetylcholine receptor M3 (Homo sapiens) (UniProt P20309); test: Logarithm of affinity (log 1/M) at the (N-methyl Scopolamine) NMS-liganded muscarinic acetylcholine receptor M3 by using semiquantitative equilibrium and off-rate assay
[13] = molecular target: T1, Muscarinic acetylcholine receptor M4 (Homo sapiens); test: Subtype selectivity and cooperativity with N-methyl Scopolamine (NMS) at Muscarinic acetylcholine receptor M4; Activity range is 1.2-3
[14] = molecular target: T2, Muscarinic acetylcholine receptor M1 (Homo sapiens); test: Subtype selectivity and the cooperativity with N-methyl Scopolamine (NMS) at Muscarinic acetylcholine receptor M1; Activity range is 0.81-1.19
[15] = molecular target: T3, Muscarinic acetylcholine receptor M2 (Homo sapiens); test: Subtype selectivity and the cooperativity with N-methyl Scopolamine (NMS) at Muscarinic acetylcholine receptor M2; Activity range is 1.2-3
[16] = molecular target: T2, Muscarinic acetylcholine receptor M1 (Homo sapiens); test: Subtype selectivity and the cooperativity with N-methyl Scopolamine (NMS) at Muscarinic acetylcholine receptor M1
[17] = molecular target: Muscarinic acetylcholine receptor M3 (Homo sapiens) (UniProt P20309); test: Subtype selectivity and the cooperativity with N-methyl Scopolamine (NMS) at Muscarinic acetylcholine receptor M3
[18] = molecular target: T3, Muscarinic acetylcholine receptor M2 (Homo sapiens); test: Subtype selectivity and the cooperativity with N-methyl Scopolamine (NMS) at Muscarinic acetylcholine receptor M2
[19] = molecular target: T1, Muscarinic acetylcholine receptor M4 (Homo sapiens); test: Subtype selectivity and the cooperativity with N-methyl Scopolamine (NMS) at Muscarinic acetylcholine receptor M4; Activity range is 0.2-0.8
[20] = molecular target: Muscarinic acetylcholine receptor M3 (Homo sapiens) (UniProt P20309); test: Subtype selectivity and the cooperativity with N-methyl Scopolamine (NMS) at Muscarinic acetylcholine receptor M3; […]
[21] = molecular target: T1, Muscarinic acetylcholine receptor M4 (Homo sapiens); test: Subtype selectivity and the cooperativity with N-methyl Scopolamine (NMS) at Muscarinic acetylcholine receptor M4
[22] = molecular target: T3, Muscarinic acetylcholine receptor M2 (Homo sapiens); test: Subtype selectivity and the cooperativity with N-methyl Scopolamine (NMS) at Muscarinic acetylcholine receptor M2; Activity range is 0.2-0.8

`O=C1CCc2cc3c(c4c5ccc(O)cc5n1c24)CNCC3` was tested, and the Log 1/M [1] was 5.52, the Log 1/M [2] was 6.59 and the Cooperativity [3] was 1.19. For the same compound, the Log 1/M [4] was 5.65, the Cooperativity [5] was 0.8 and the Log 1/M [6] was 5.64. The Log 1/M [7] was 5.6, the Cooperativity [8] was 0.8 and the Log 1/M [9] was 6.13. It also gave a Log 1/M [10] of 5.6, a Cooperativity [11] of 1.19 and a Log 1/M [12] of 5.23.
Compound `COc1ccc2c3c4c(cc5c3n(c2c1)C(=O)CC5)CCNC4` has a Log 1/M [1] of 5.68, a Cooperativity [13] of 3 and a Log 1/M [2] of 6.13. For the same compound, the Log 1/M [4] was 6, the Log 1/M [6] was 6.18 and the Log 1/M [7] was 5.14. It also gave a Cooperativity [14] of 1.19, a Cooperativity [8] of 0.8 and a Log 1/M [9] of 6.17. It also gave a Log 1/M [10] of 5.92, a Cooperativity [15] of 3 and a Log 1/M [12] of 4.86.
For `O=C(c1ccc2c(c1)c1c3c(cc4c1n2C(=O)CC4)CNCC3)N1CCOCC1`, the Log 1/M [1] was 5.14, the Cooperativity [16] was < 0.2 and the Log 1/M [2] was 5.1. The Log 1/M [4] was 4.54, the Cooperativity [17] was < 0.2 and the Log 1/M [6] was 5.21. The Cooperativity [18] was > 3, the Log 1/M [7] was 4.45 and the Log 1/M [9] was 4.7. The Log 1/M [10] was 4.71, the Cooperativity [19] was 0.8 and the Log 1/M [12] was 3.57.
For `COc1cc2c(c(OC)c1OC)c1c3c(cc4c1n2C(=O)CC4)CNCC3`, the Log 1/M [1] was 5.97, the Cooperativity [13] was 3 and the Log 1/M [2] was 6.74. It also gave a Log 1/M [4] of 6.21, a Cooperativity [5] of 0.8 and a Log 1/M [6] of 6.67. The Log 1/M [7] was 5.63, the Cooperativity [8] was 0.8 and the Log 1/M [9] was 6.52. The Log 1/M [10] was 6.69, the Cooperativity [11] was 1.19 and the Log 1/M [12] was 5.33.
`O=C1CCc2cc3c(c4c5cc(Cl)ccc5n1c24)CCNC3` gave a Log 1/M [1] of 5.61, a Log 1/M [2] of 5.66 and a Log 1/M [4] of 6.14. The Cooperativity [20] was 1.19, the Log 1/M [6] was 6.54 and the Cooperativity [18] was > 3. For the same compound, the Log 1/M [7] was 5.16, the Cooperativity [14] was 1.19 and the Cooperativity [21] was > 3. The Log 1/M [9] was 5.58, the Log 1/M [10] was 5.93 and the Log 1/M [12] was 5.23.
`N#Cc1ccc2c3c4c(cc5c3n(c2c1)C(=O)CC5)CNCC4` gave a Log 1/M [1] of 5.85, a Log 1/M [2] of 5.87 and a Cooperativity [3] of 1.19. For the same compound, the Log 1/M [4] was 5.36, the Cooperativity [22] was 0.8 and the Cooperativity [5] was 0.8. For the same compound, the Log 1/M [6] was 5.58, the Log 1/M [7] was 5.19 and the Cooperativity [8] was 0.8. The Log 1/M [9] was 5.46, the Log 1/M [10] was 5.79 and the Log 1/M [12] was 4.68.
`COC(=O)c1ccc2c3c4c(cc5c3n(c2c1)C(=O)CC5)CNCC4` was tested, and the Log 1/M [1] was 5.04, the Log 1/M [2] was 6.14 and the Log 1/M [4] was 6.01. It also gave a Cooperativity [22] of 0.8, a Cooperativity [5] of 0.8 and a Log 1/M [6] of 6.35. It also gave a Log 1/M [7] of 5.43, a Cooperativity [8] of 0.8 and a Log 1/M [9] of 5.72. It also gave a Log 1/M [10] of 6.39, a Cooperativity [19] of 0.8 and a Log 1/M [12] of 4.83.
With `CC1(C)CC(=O)n2c3cccc(O)c3c3c4c(cc1c32)CNCC4` the Log 1/M [1] was 5.75, the Cooperativity [13] was 3 and the Log 1/M [2] was 5.8. For the same compound, the Log 1/M [4] was 5.97, the Log 1/M [6] was 5.88 and the Log 1/M [7] was 5.15. It also gave a Cooperativity [14] of 1.19, a Cooperativity [8] of 0.8 and a Log 1/M [9] of 5.84. The Log 1/M [10] was 5.56, the Cooperativity [15] was 3 and the Log 1/M [12] was 4.84.
